These are literature values, as cited in patent US6472583B1, “Plasmid-based mutation detection system in transgenic fish” (The University of Georgia Research Foundation, Inc., priority 1998, dated 2002).

Structures are written as SMILES. Read-outs that look alike come from different tables or passages of the source.

In data set [1] the test system is λLIZ transgenic fish. The settings on record: previous studies using λLIZ transgenic fish.
For data set [2] the following is noted: species not stated.

By LD50 is commonly meant the dose at which mortality reaches 50%. With `CCN(N=O)C(N)=O` [ENU, N-ethyl-N-nitrosourea], the mutation frequency induction result in data set [1] (dose about 0.5 mM (60 ppm)) is “two-fold”; in data set [1] (dose about 120 ppm, medaka), “four-fold”. In data set [2], the median lethal dose (LD50) is given as about 350 mg/kg.
